For one data set, the target named is tau fibrils (Homo sapiens, UniProt P10636). In words: Table A function: disaggregators of amyloid fibrils (tau).
Another data set deals with biosensor cells. Put plainly: Toxicity to biosensor cells under seeding assay conditions. The format is cell-based. Particulars: under the assayed conditions.
The next data set addresses α-synuclein fibrils (Homo sapiens, UniProt P37840). In words: Table A function: disaggregators of amyloid fibrils (alpha-synuclein).

tau fibrils, sequence (P10636 1-441 isoform P10636-8): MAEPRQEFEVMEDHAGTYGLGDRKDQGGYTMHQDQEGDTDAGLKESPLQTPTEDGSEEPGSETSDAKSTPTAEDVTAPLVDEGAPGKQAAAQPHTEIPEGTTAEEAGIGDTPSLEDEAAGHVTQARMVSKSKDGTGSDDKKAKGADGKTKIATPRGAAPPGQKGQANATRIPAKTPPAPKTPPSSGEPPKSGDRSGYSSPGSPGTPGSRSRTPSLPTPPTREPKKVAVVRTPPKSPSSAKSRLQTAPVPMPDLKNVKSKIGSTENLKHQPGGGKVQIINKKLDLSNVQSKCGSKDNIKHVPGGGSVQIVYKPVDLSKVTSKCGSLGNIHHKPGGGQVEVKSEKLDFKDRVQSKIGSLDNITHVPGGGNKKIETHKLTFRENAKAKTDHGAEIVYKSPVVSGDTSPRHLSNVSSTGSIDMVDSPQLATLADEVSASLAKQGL

As to `COc1cccc2cc(C(=O)Nc3cccc(-c4cn5ccccc5n4)c3)c(=O)oc12` [compound 1541, N-(3-(imidazo[1,2-a]pyridin-2-yl)phenyl)-8-methoxy-2-oxo-2H-chromene-3-carboxamide], at tau fibrils, the Function result was “Dissociate tau fibrils”.

In the case of `Oc1cccc(-c2c3nc(c(-c4cccc(O)c4)c4ccc([nH]4)c(-c4cccc(O)c4)c4nc(c(-c5cccc(O)c5)c5ccc2[nH]5)CC4)C=C3)c1` [FDA-A4, Temoporfin], the “toxicity to biosensor cells” value in the data set with biosensor cells is “toxic”.

On to `Cc1cc(NC(=O)Cc2ccccc2Cl)ccc1Br` [MOL06, N-(4-bromo-3-methylphenyl)-2-(2-chlorophenyl)acetamide], for which, at α-synuclein fibrils, the Function result is recorded as “Dissociate α- synuclein fibrils”.

`O=C1C(Cl)=C(Nc2ccc(Cl)cc2)C(=O)c2ccccc21` [MOL18, 2-chloro-3-[(4-chlorophenyl)amino]naphthalene-1,4-dione]: on tau fibrils, the Function entry is “Dissociate tau fibrils”.

The values above are taken from patent US20260021092A1, “STRUCTURE-BASED DESIGN OF A NOVEL CLASS OF DRUGS FOR NEURODEGENERATIVE DISEASE” (The Regents of the University of California, priority 2022, published 2026).
